# Data published in ChEMBL document CHEMBL4376882, “Photodynamic Therapy for ras-Driven Cancers: Targeting G-Quadruplex RNA Structures with Bifunctional Alkyl-Modified Porphyrins” (J Med Chem, 2020).
# pEC50, pKd: −log10 of the molar value. Calls of active or inactive are those of the source. No cut-off for these calls is given here.
# Legend:
# [1] = system: Quadruplex DNA; test: Binding affinity to human KRAS utr-z RNA g-quadruplex assessed as compound-RNA complex stoichiometry ratio of 6:1 by Job's plot analysis; type: nucleic-acid assay
# [2] = system: PANC-1; test: Induction of apoptosis in human PANC1 cells assessed as viable cells at 5 nM and photoirradiated at 7.2 J/cm2 measured after 6 to 24 hrs in presence of NAC by annexin-V-propidium iodide staining based FACScalibur flow cytometry analysis (reference value: 94.5 %); type: functional; details: PANC-1, light or radiation study, read-out: Activity
# [3] = system: Quadruplex DNA; test: Induction of ROS-mediated […] labeled Ras RNA g-quadruplex (unknown origin) degradation at 0.6 uM incubated for 30 mins in presence of NAC followed by photoirradiation for 15 to 30 mins by PAGE analysis; type: nucleic-acid assay
# [4] = system: PANC-1; test: Cytotoxicity against human PANC1 cells assessed as reduction in metabolic activity after 48 hrs in dark followed by photoirradiation in presence of NADH by resazurin assay; type: functional, cell-based; details: PANC-1, light or radiation study
# [5] = biological target: Quadruplex DNA; test: Binding affinity to human KRAS utr-c RNA g-quadruplex by fluorescence spectroscopy; type: nucleic-acid assay
# [6] = Toxicity in SCID mouse xenografted with human PANC1 cells assessed as tissue damage around the irradiated tumor at 3 mg/kg administered intratumorally after 2 hrs photoirradiated by diode laser at 193 J/cm2; type: organism-based; details: in vivo, other
# [7] = system: PANC-1; test: Induction of apoptosis in human PANC1 cells assessed as necrotic cells at 5 nM and photoirradiated at 7.2 J/cm2 measured after 6 to 24 hrs by annexin-V-propidium iodide staining based FACScalibur flow cytometry analysis (reference value: 0.7 %); type: functional
# [8] = system: PANC-1; test: Induction of ROS generation in human PANC1 cells cleavage of CM-H2DCFDA to CM-H2DCF by intracellular esterase by measuring green fluorescence emission incubated for 16 hrs in presence of NAC followed by 7.2J/cm2 photoirradiation and subsequent compound washout measured after 40 mins by CM-H2DCFDA staining-based FACSCalibur flow cytometry; type: functional, cell-based
# [9] = biological target: Quadruplex DNA; test: Binding affinity to NRAS RNA g-quadruplex (unknown origin) by fluorescence spectroscopy; type: nucleic-acid assay
# [10] = system: MIA PaCa-2; test: Cytotoxicity against human MIAPaCa2 cells harboring G12C point mutation assessed as reduction in metabolic activity after 48 hrs in dark followed by photoirradiation in presence of NADH by resazurin assay; type: functional, cell-based
# [11] = biological target: Quadruplex DNA; test: Binding affinity to human KRAS utr-1 RNA g-quadruplex by fluorescence spectroscopy; type: nucleic-acid assay
# [12] = biological target: GTPase KRas (Homo sapiens) (UniProt P01116); test: Inhibition of KRAS in human PANC1 cells assessed as downregulation of KRAS expression at 15 nM followed by 7.2 J/cm2 irradiation after 4 hrs by Western blot analysis (reference value: 5 %); type: cell-based
# Sequence of GTPase KRas (Homo sapiens) (P01116 whole entry, looked up): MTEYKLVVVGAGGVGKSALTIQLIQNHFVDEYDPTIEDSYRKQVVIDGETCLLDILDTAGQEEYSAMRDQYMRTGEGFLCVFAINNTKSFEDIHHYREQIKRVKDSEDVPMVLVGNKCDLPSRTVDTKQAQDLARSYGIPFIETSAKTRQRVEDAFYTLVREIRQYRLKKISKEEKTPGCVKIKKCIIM
# [13] = system: Quadruplex DNA; test: Binding affinity to human KRAS utr-z RNA g-quadruplex assessed as induction of hypochromicity at 1.6 uM by UV-vis spectrophotometry relative to control; type: nucleic-acid assay
# [14] = Drug uptake in human HEK293 cells at 5 uM and 4 degree C after 16 hrs by FACS analysis relative to 37 degree C; type: ADME, cell-based; details: hek293, 16 h
# [15] = biological target: GTPase NRas (Homo sapiens) (UniProt P01111); test: Inhibition of NRAS in human PANC1 cells assessed as downregulation of NRAS expression at 15 nM followed by 7.2 J/cm2 irradiation after 4 hrs by Western blot analysis (reference value: 25 %); type: cell-based
# Sequence of GTPase NRas (Homo sapiens) (P01111 whole entry): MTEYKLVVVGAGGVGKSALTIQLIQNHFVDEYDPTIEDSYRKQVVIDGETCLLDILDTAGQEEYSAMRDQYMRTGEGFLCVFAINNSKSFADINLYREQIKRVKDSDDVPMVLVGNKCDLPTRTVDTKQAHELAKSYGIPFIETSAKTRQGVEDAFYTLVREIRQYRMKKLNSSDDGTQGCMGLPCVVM
# [16] = system: PANC-1; test: Induction of apoptosis in human PANC1 cells assessed as necrotic cells at 5 nM and photoirradiated at 7.2 J/cm2 measured after 6 to 24 hrs in presence of NAC by annexin-V-propidium iodide staining based FACScalibur flow cytometry analysis (reference value: 1 %); type: functional
# [17] = system: PANC-1; test: Induction of apoptosis in human PANC1 cells assessed as cleavage of caspase 7 when photoirradiated at 7.2 J/cm2 by Western blot analysis; type: functional, cell-based
# [18] = system: PANC-1; test: Induction of apoptosis in human PANC1 cells assessed as viable cells at 5 nM and photoirradiated at 7.2 J/cm2 measured after 6 to 24 hrs by annexin-V-propidium iodide staining based FACScalibur flow cytometry analysis (reference value: 91.9 %); type: functional; details: PANC-1, light or radiation study, read-out: Activity
# [19] = system: Quadruplex DNA; test: Induction of ROS-mediated […] labeled Ras RNA g-quadruplex (unknown origin) degradation assessed as increase in residual RNA g-quadruplex at 0.6 uM incubated for 30 mins in presence of NAC followed by photoirradiation for 15 to 30 mins by PAGE analysis relative to control; type: nucleic-acid assay
# [20] = Drug uptake in human PANC1 cells at 5 uM after 16 hrs by FACS analysis; type: ADME, cell-based; details: panc-1, 16 h
# [21] = system: PANC-1; test: Induction of apoptosis in human PANC1 cells assessed as necrotic cells at 10 nM and photoirradiated at 7.2 J/cm2 measured after 6 to 24 hrs by annexin-V-propidium iodide staining based FACScalibur flow cytometry analysis (reference value: 0.7 %); type: functional
# [22] = Induction of ROS-mediated Cys5.5 labelled utr-z RNA duplex (unknown origin) degradation at 0.6 uM incubated for 30 mins followed by photoirradiation for 15 to 30 mins by PAGE analysis
# [23] = biological target: Quadruplex DNA; test: Binding affinity to human KRAS utr-z RNA g-quadruplex at 40 degree C by SPR analysis; type: nucleic-acid assay
# [24] = system: PANC-1; test: Antitumor activity against human PANC1 cells xenografted in SCID mouse assessed as reduction in tumor growth at 3 mg/kg administered intratumorally measured after 14 days by micrometer caliper method; type: functional, organism-based
# [25] = Induction of ROS-mediated […] labelled 20-mer utr-z stem-loop RNA (unknown origin) degradation at 0.6 uM incubated for 30 mins followed by photoirradiation for 15 to 30 mins by PAGE analysis
# [26] = system: PANC-1; test: Cytotoxicity against human PANC1 cells assessed as reduction in metabolic activity at 20 nM after 24 to 72 hrs in dark followed by photoirradiation in presence of NADH by resazurin assay; type: functional, cell-based
# [27] = Induction of ROS-mediated […] labeled Ras RNA g-quadruplex (unknown origin) degradation at 0.6 uM incubated for 30 mins followed by photoirradiation for 15 to 30 mins by PAGE analysis
# [28] = system: PANC-1; test: Induction of apoptosis in human PANC1 cells assessed as necrotic cells at 15 nM and photoirradiated at 7.2 J/cm2 measured after 6 to 24 hrs in presence of NAC by annexin-V-propidium iodide staining based FACScalibur flow cytometry analysis (reference value: 1 %); type: functional
# [29] = system: PANC-1; test: Induction of apoptosis in human PANC1 cells assessed as early apoptotic cells at 15 nM and photoirradiated at 7.2 J/cm2 measured after 6 to 24 hrs by annexin-V-propidium iodide staining based FACScalibur flow cytometry analysis (reference value: 4.6 %); type: functional
# [30] = biological target: GTPase KRas (Homo sapiens) (UniProt P01116); test: Inhibition of KRAS in human PANC1 cells assessed as downregulation of KRAS expression at 15 nM after 4 hrs by Western blot analysis; type: cell-based
# [31] = biological target: GTPase NRas (Homo sapiens) (UniProt P01111); test: Inhibition of NRAS in human PANC1 cells assessed as decrease in NRAS mRNA level at 15 nM followed by 7.2 J/cm2 irradiation after 4 hrs by qRT-PCR analysis; type: cell-based
structure (smiles),measurement,setting,value
CCCCCCCCCCCCCC[n+]1ccc(-c2c3nc(c(-c4cc[n+](C)cc4)c4ccc([nH]4)c(-c4cc[n+](C)cc4)c4nc(c(-c5cc[n+](C)cc5)c5ccc2[nH]5)C=C4)C=C3)cc1.[I-].[I-].[I-].[I-],Activity,[1],Active
same,viability at 0.005 µM,[2],95.2%
same,Activity,[3],inactive
same,pEC50,[4],7.86
same,pKd,[5],6.63
same,Activity,[6],Non-Toxic
same,Activity,[7],0.6%
same,Activity,[8],inactive
same,pKd,[9],6.97
same,Activity,[10],Active
same,pKd,[11],6.63
same,inhibition,[12],20%
same,Activity,[13],50%
same,Drug uptake,[14],Active
same,inhibition,[15],50%
same,Activity,[16],1.2%
same,Activity,[17],Active
same,viability at 0.005 µM,[18],88.2%
same,Activity,[19],50%
same,Drug uptake,[20],Active
same,Activity,[21],2.2%
same,Activity,[22],inactive
same,pKd,[23],6.69 to 7.09
same,Activity,[24],inactive
same,Activity,[25],inactive
same,Activity,[26],Active
same,Activity,[27],Active
same,Activity,[28],1.7%
same,Activity,[29],4.5%
same,inhibition,[30],inactive
same,inhibition,[31],Active
